Laboratory results as given in patent US10766903B2 (ALMAC DISCOVERY LIMITED, priority 2016, dated 2020).

Biological target: USP7 (Homo sapiens (Human), UniProt Q93009)
Assay: USP7 fluorescence polarisation (FP) biochemical assay, ubiquitin-Lys-TAMRA substrate
Details: Table 4, biochemical assay; average of at least duplicate experiments; read-out: USP7 IC50
Procedure, shortened: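 Full-length His6-USP7 (2.5 nM) incubated ± inhibitor (8-point dilutions, 200 to 0.1 μM before addition) in 50 mM HEPES pH 7.2, 150 mM NaCl, 0.5 mM EDTA, 5 mM DTT, 0.05% BSA, 0.05% CHAPS. Ubiquitin-Lys-TAMRA cleavage followed by FP (ex 530/em 575 nm) every 15 min for 1.5 h; normalised to no-compound control.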

Sequence of USP7 (Q93009 whole entry): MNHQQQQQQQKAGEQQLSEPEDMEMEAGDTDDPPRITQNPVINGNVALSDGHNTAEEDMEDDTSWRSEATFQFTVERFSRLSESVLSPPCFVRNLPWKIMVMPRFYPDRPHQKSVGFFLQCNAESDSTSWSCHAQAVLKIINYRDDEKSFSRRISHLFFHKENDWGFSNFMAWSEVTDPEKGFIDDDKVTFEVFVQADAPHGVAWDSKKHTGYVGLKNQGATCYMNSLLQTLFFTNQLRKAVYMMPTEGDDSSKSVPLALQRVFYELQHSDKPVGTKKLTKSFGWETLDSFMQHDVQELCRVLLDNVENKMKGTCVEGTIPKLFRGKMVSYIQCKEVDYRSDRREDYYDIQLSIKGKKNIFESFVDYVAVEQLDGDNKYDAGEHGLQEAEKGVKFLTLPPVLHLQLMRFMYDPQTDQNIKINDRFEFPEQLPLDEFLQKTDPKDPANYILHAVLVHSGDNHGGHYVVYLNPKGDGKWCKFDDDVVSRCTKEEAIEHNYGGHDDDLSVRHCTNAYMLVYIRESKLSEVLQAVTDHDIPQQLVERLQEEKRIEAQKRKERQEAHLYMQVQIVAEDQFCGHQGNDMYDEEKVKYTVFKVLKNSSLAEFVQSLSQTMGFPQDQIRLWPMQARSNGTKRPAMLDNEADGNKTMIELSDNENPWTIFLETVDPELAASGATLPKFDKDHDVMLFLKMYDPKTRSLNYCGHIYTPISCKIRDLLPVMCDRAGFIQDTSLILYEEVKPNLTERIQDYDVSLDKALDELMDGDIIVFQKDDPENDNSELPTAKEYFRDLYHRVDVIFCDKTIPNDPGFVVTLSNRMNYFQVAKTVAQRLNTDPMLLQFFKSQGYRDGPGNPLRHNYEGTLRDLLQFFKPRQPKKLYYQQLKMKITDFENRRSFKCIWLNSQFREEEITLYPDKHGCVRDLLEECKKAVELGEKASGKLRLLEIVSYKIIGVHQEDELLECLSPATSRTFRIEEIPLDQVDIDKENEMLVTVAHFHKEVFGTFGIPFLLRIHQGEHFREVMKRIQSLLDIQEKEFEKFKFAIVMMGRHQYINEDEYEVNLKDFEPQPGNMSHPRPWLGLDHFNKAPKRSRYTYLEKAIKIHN

Compared with `Cn1nccc1-c1cccc(-n2c(Cl)cc3c(=O)n(CC4(O)CCN(C(=O)C5(C)CC5)CC4)cnc32)c1` [Example 208, 6-Chloro-3-((4-hydroxy-1-(1-methylcyclopropanecarbonyl)piperidin-4-yl)methyl)-7-(3-(1-methyl-1H-pyrazol-5-yl)phenyl)-3H-pyrrolo[2,3-d]pyrimidin-4(7H)-one], `CC1(C(=O)N2CCC(O)(Cn3cnc4c(cc(Cl)n4-c4ccc(F)cc4)c3=O)CC2)CC1` [Example 204, 6-Chloro-7-(4-fluorophenyl)-3-((4-hydroxy-1-(1-methylcyclopropanecarbonyl)piperidin-4-yl)methyl)-3H-pyrrolo[2,3-d]pyrimidin-4(7H)-one] is lower in IC50: 250 to 999 nM for the first, under 250 nM for the second. The second is the more potent here.

`Cc1nc2c(=O)n(CC3(O)CCN(C(=O)C[C@H](c4ccccc4)C(F)(F)F)CC3)cnc2n1-c1ccc(CN)cc1` [Example 78, (R)-9-(4-(Aminomethyl)phenyl)-1-((4-hydroxy-1-(4,4,4-trifluoro-3-phenylbutanoyl)piperidin-4-yl)methyl)-8-methyl-1H-purin-6(9H)-one] and `Cn1nc2c(=O)n(CC3(O)CCN(C(=O)C[C@H](c4ccccc4)C(F)(F)F)CC3)cnc2c1-c1ccc(C2(N)CC2)cc1` [Example 124, (R)-3-(4-(1-Aminocyclopropyl)phenyl)-6-((4-hydroxy-1-(4,4,4-trifluoro-3-phenylbutanoyl)piperidin-4-yl)methyl)-2-methyl-2H-pyrazolo[4,3-d]pyrimidin-7(6H)-one] cannot be ordered by IC50: under 250 nM for the first, under 250 nM for the second.

First: C[C@H](CC(=O)N1CCC(O)(Cn2cnc(/C=C/CN3CCCC3)cc2=O)CC1)c1ccccc1 [Example 51, (R,E)-3-((4-Hydroxy-1-(3-phenylbutanoyl)piperidin-4-yl)methyl)-6-(3-(pyrrolidin-1-yl)prop-1-en-1-yl)pyrimidin-4(3H)-one]
Second: C[C@H](CC(=O)N1CCC(O)(Cn2cnc(NCCN3CCCCC3)cc2=O)CC1)c1ccccc1 [Example 52, (R)-3-((4-Hydroxy-1-(3-phenylbutanoyl)piperidin-4-yl)methyl)-6-((2-(piperidin-1-yl)ethyl)amino)pyrimidin-4(3H)-one]
The IC50 of the first is higher: 1000 to 200000 nM for the first, under 250 nM for the second. The second is the more potent here.

Compared with `Cn1nc2c(=O)n(CC3(O)CCN(C(=O)CC(C4CC4)C4CC4)CC3)cnc2c1-c1ccccc1` [Example 193, 6-((1-(3,3-Dicyclopropylpropanoyl)-4-hydroxypiperidin-4-yl)methyl)-2-methyl-3-phenyl-2H-pyrazolo[4,3-d]pyrimidin-7(6H)-one], `CC(=O)N1CCC(O)(Cn2cnc3c(-c4ccccc4)n(C)nc3c2=O)CC1` [Example 131, 6-((1-Acetyl-4-hydroxypiperidin-4-yl)methyl)-2-methyl-3-phenyl-2H-pyrazolo[4,3-d]pyrimidin-7(6H)-one] is higher in IC50: 250 to 999 nM for the first, 1000 to 200000 nM for the second.

First: C[C@H](CC(=O)N1CCC(O)(Cn2cnc3c(-c4ccccc4)cnn3c2=O)CC1)c1ccccc1 [Example 139, (R)-3-((4-Hydroxy-1-(3-phenylbutanoyl)piperidin-4-yl)methyl)-8-phenylpyrazolo[1,5-a][1,3,5]triazin-4(3H)-one]
Second: Cc1nn(C)cc1Nc1cc(=O)n(CC2(O)CCN(C(=O)C[C@@H](C)c3ccccc3)CC2)cn1 [Example 170, (R)-6-((1,3-dimethyl-1H-pyrazol-4-yl)amino)-3-((4-hydroxy-1-(3-phenylbutanoyl)piperidin-4-yl)methyl)pyrimidin-4(3H)-one]
The IC50 of the first is lower: under 250 nM for the first, 1000 to 200000 nM for the second. The first is the more potent here.

First: Cn1cc(C(=O)N2CCC(O)(Cn3cnc4c(cc(Cl)n4-c4cccc(C5CC5)c4)c3=O)CC2)cn1 [Example 219, 6-Chloro-7-(3-cyclopropylphenyl)-3-((4-hydroxy-1-(1-methyl-1H-pyrazole-4-carbonyl)piperidin-4-yl)methyl)-3H-pyrrolo[2,3-d]pyrimidin-4(7H)-one]
Second: COc1cc(-n2c(Cl)cc3c(=O)n(CC4(O)CCN(C(=O)C5(C)CC5)CC4)cnc32)ccc1F [Example 207, 6-Chloro-7-(4-fluoro-3-methoxyphenyl)-3-((4-hydroxy-1-(1-methylcyclopropanecarbonyl)piperidin-4-yl)methyl)-3H-pyrrolo[2,3-d]pyrimidin-4(7H)-one]
The IC50 of the first is lower: under 250 nM for the first, 250 to 999 nM for the second. The first is the more potent here.

First: CC(=O)N(CCN1CCCC1)c1cc(=O)n(CC2(O)CCN(C(=O)C[C@@H](C)c3ccccc3)CC2)cn1 [Example 113, (R)—N-(1-((4-Hydroxy-1-(3-phenylbutanoyl)piperidin-4-yl)methyl)-6-oxo-1,6-dihydropyrimidin-4-yl)-N-(2-(pyrrolidin-1-yl)ethyl)acetamide, Formic Acid]
Second: C[C@H](CC(=O)N1CCC(O)(Cn2cnc(NC[C@@H](C)N3CCCC3)cc2=O)CC1)c1ccccc1 [Example 58, 3-((4-Hydroxy-1-((R)-3-phenylbutanoyl)piperidin-4-yl)methyl)-6-(((R)-2-(pyrrolidin-1-yl)propyl)amino)pyrimidin-4(3H)-one]
The IC50 of the first is higher: 1000 to 200000 nM for the first, under 250 nM for the second. The second is the more potent here.

`C[C@H](CC(=O)N1CCC(O)(Cn2cnc(N3CCN(Cc4cccnc4)CC3)cc2=O)CC1)c1ccccc1` [Example 158, (R)-3-((4-hydroxy-1-(3-phenylbutanoyl)piperidin-4-yl)methyl)-6-(4-(pyridin-3-ylmethyl)piperazin-1-yl)pyrimidin-4(3H)-one] and `C[C@H](CC(=O)N1CCC(O)(Cn2cnc(N3CCC(c4ccn[nH]4)CC3)cc2=O)CC1)c1ccccc1` [Example 156, (R)-6-(4-(1H-pyrazol-5-yl)piperidin-1-yl)-3-((4-hydroxy-1-(3-phenylbutanoyl)piperidin-4-yl)methyl)pyrimidin-4(3H)-one] fall in the same range of IC50: 1000 to 200000 nM for the first, 1000 to 200000 nM for the second.

`C[C@H](CC(=O)N1CCC(O)(C(O)c2cnc3ccccn3c2=O)CC1)c1ccccc1` (stereo partly drawn) [Example 101, 3-(Hydroxy(4-hydroxy-1-((R)-3-phenylbutanoyl)piperidin-4-yl)methyl)-4H-pyrido[1,2-a]pyrimidin-4-one] and `C[C@H](CC(=O)N1CCC(O)(Cn2cnc(NC3(C)COC3)cc2=O)CC1)c1ccccc1` [Example 155, (R)-3-((4-hydroxy-1-(3-phenylbutanoyl)piperidin-4-yl)methyl)-6-((3-methyloxetan-3-yl)amino)pyrimidin-4(3H)-one] fall in the same range of IC50: 1000 to 200000 nM for the first, 1000 to 200000 nM for the second.

`CC1(C(=O)N2CCC(O)(Cn3cnc4c(nnn4-c4ccccc4)c3=O)CC2)CC1` [Example 197, 6-((4-Hydroxy-1-(1-methylcyclopropanecarbonyl)piperidin-4-yl)methyl)-3-phenyl-3H-[1,2,3]triazolo[4,5-d]pyrimidin-7(6H)-one] and `C[C@H](CC(=O)N1CCC(O)(Cn2cnc(N3CCOC(C)(C(=O)N(C)C)C3)cc2=O)CC1)c1ccccc1` (stereo partly drawn) [Example 148, 4-(1-((4-hydroxy-1-((R)-3-phenylbutanoyl)piperidin-4-yl)methyl)-6-oxo-1,6-dihydropyrimidin-4-yl)-N,N,2-trimethylmorpholine-2-carboxamide] fall in the same range of IC50: 1000 to 200000 nM for the first, 1000 to 200000 nM for the second.

`C[C@H](CC(=O)N1CCC(O)(Cn2cnc(NC3CCCC[C@H]3N)cc2=O)CC1)c1ccccc1` (mixture of isomers) [Example 63, rac-6-(((±-trans-1,2)-2-Aminocyclohexyl)amino)-3-((4-hydroxy-1-((R)-3-phenylbutanoyl)piperidin-4-yl)methyl)pyrimidin-4(3H)-one, Formic Acid] and `C[C@H](CC(=O)N1CCC(O)(Cn2cnc(NC[C@H]3CCCN3C)cc2=O)CC1)c1ccccc1` [Example 65, 3-((4-Hydroxy-1-((R)-3-phenylbutanoyl)piperidin-4-yl)methyl)-6-((((R)-1-methylpyrrolidin-2-yl)methyl)amino)pyrimidin-4(3H)-one, Formic Acid] fall in the same range of IC50: 250 to 999 nM for the first, 250 to 999 nM for the second.

`CC(C)c1c2c(nn1C)C(=O)N(CC1(O)CCN(C(=O)C[C@@H](C)c3ccccc3)CC1)CN2` [Example 34, (R)-6-((4-Hydroxy-1-(3-phenylbutanoyl)piperidin-4-yl)methyl)-3-isopropyl-2-methyl-5,6-dihydro-2H-pyrazolo[4,3-d]pyrimidin-7(4H)-one] and `C[C@H](CC(=O)N1CCC(O)(Cn2cnc(N3CC4CCOC4C3)cc2=O)CC1)c1ccccc1` (stereo partly drawn) [Example 153, 3-((4-hydroxy-1-((R)-3-phenylbutanoyl)piperidin-4-yl)methyl)-6-(tetrahydro-2H-furo[2,3-c]pyrrol-5(3H)-yl)pyrimidin-4(3H)-one] fall in the same range of IC50: 1000 to 200000 nM for the first, 1000 to 200000 nM for the second.

Same assay, conditions: USP7 IC50, Table 4, biochemical assay; average of at least duplicate experiments

`C[C@H](CC(=O)N1CCC(O)(Cn2cnc(N[C@@H](C)CN3CCCC3)cc2=O)CC1)c1ccccc1` [Example 61, 3-((4-Hydroxy-1-((R)-3-phenylbutanoyl)piperidin-4-yl)methyl)-6-(((S)-1-(pyrrolidin-1-yl)propan-2-yl)amino)pyrimidin-4(3H)-one, Formic Acid] and `C[C@H](CC(=O)N1CCC(O)(Cn2cnc(NCCN3CC[C@@H](F)C3)cc2=O)CC1)c1ccccc1` [Example 73, 6-((2-((R)-3-Fluoropyrrolidin-1-yl)ethyl)amino)-3-((4-hydroxy-1-((R)-3-phenylbutanoyl)piperidin-4-yl)methyl)pyrimidin-4(3H)-one, Formic Acid] fall in the same range of IC50: 250 to 999 nM for the first, 250 to 999 nM for the second.

`C[C@H](CC(=O)N1CCC(O)(Cn2cnc(-c3cnn(CCN(C)C)c3)cc2=O)CC1)c1ccccc1` [Example 54, (R)-6-(1-(2-(Dimethylamino)ethyl)-1H-pyrazol-4-yl)-3-((4-hydroxy-1-(3-phenylbutanoyl)piperidin-4-yl)methyl)pyrimidin-4(3H)-one, Formic Acid] and `C[C@H](CC(=O)N1CCC(O)(Cn2cnc(N3CC(N)C3)cc2=O)CC1)c1ccccc1` [Example 13, (R)-6-(3-Aminoazetidin-1-yl)-3-((4-hydroxy-1-(3-phenylbutanoyl)piperidin-4-yl)methyl)pyrimidin-4(3H)-one] fall in the same range of IC50: 250 to 999 nM for the first, 250 to 999 nM for the second.

With `CC(=O)N1CC2(C1)CN(c1cc(=O)n(CC3(O)CCN(C(=O)C[C@@H](C)c4ccccc4)CC3)cn1)C2` [Example 172, (R)-6-(6-acetyl-2,6-diazaspiro[3.3]heptan-2-yl)-3-((4-hydroxy-1-(3-phenylbutanoyl)piperidin-4-yl)methyl)pyrimidin-4(3H)-one] the IC50 was 250 to 999 nM.
